Reference: patent publication US9975918B2 (Van Andel Research Institute, priority 2013, dated 2018)
Changes are numbered by the printed parent chain.

Tests used:
[1] = when used at high concentration; cited from earlier work
[2] = system: GR Q642 mutations (Q642A, Q642F, Q642E, Q642K); test: MMTV-Luc transactivation assay with the other Q642 mutations; type: cell-based; conditions: MF 1 nM, DEX 10 nM
[3] = biological target: T1, GR (Homo sapiens, UniProt P04150); test: MMTV-Luc transactivation (induction) reporter assay in AD293 cells; type: cell-based; conditions: for potency for GR, in words: compounds without 17α furoate; for effect of the 17α furoate on potency and efficacy, in words: relative to the corresponding compound without 17α furoate; for potency compared with reference glucocorticoids, in words: MMTV-Luc, AD293 cells
T1 construct: expressed in transfected cells; host or cells: AD293 cells
T1 sequence (P04150 1-777): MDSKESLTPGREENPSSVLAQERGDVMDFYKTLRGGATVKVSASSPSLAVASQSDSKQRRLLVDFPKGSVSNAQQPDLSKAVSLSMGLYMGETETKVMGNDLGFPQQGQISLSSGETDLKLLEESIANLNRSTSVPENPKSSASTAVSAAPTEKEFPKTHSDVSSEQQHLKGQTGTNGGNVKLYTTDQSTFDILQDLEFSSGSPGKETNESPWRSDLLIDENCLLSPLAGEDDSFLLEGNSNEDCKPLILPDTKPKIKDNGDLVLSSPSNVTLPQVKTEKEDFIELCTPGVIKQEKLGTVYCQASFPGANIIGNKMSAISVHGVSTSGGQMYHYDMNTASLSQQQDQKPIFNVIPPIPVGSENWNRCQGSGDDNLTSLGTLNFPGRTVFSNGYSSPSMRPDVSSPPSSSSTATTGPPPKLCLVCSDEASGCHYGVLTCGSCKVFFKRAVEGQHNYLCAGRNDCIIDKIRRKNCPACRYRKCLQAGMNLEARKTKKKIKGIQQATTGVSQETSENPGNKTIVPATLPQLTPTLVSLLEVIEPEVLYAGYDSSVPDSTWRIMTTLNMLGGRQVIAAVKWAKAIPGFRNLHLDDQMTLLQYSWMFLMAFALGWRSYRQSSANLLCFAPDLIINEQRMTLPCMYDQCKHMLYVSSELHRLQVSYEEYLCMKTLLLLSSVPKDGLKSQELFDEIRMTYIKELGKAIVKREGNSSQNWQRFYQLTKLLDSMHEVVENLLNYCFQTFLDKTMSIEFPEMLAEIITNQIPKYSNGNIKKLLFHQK

[4] = biological target: T1, GR; test: AP1-Luc transrepression reporter assay in AD293 cells; type: cell-based
[5] = biological target: T2, GR Q642N (Homo sapiens, UniProt P04150, Q642N); test: MMTV-Luc transactivation assay with Q642N mutant; type: cell-based; conditions: compared with wild type; up to saturation concentration
T2 construct: expressed in transfected cells; host or cells: AD293 cells
T2 sequence (P04150 1-777 Q642N): T1 sequence (P04150 1-777) with Q642N
Method: AD293 cells were split at 20,000/well in 24 well plate one day before transfection. For transactivation, 100 ng pHHLuc (MMTV-Luc) plasmid, 0.1 ng pRShGR together with 5 ng phRGtkRenilla were transfected by X-tremeGENE 9 (Roche) into AD293 cells per well. For transreperssion, 10 ng AP1-Luc, 100 ng pRShGR and 5 ng phRGtkRenilla were transfected into AD293 cells per well. One day after transfection, cells were induced by different treatment (steroids or vehicle) 16 hrs overnight.

## CC1=C[C@@H]2[C@H]([C@@H](O)C[C@@]3(C)[C@H]2C[C@@H](C)[C@]3(O)C(=O)CO)[C@@]2(C)Cc3cnn(-c4ccccc4)c3C=C12 [DAC, deacylcortivazol]
[1]
  cytotoxicity, in words: strong cytotoxicity

## C[C@@H]1C[C@H]2[C@@H]3CCC4=CC(=O)C=C[C@]4(C)[C@@]3(Cl)[C@@H](O)C[C@]2(C)[C@@]1(OC(=O)c1ccco1)C(=O)CCl [MF, Mometasone Furoate]
[2]
  transactivation activity at sub-saturated concentration, in words: loss of most of the activity

## CCNC(=O)[C@@]1(O)CCC2C3CCC4=Cc5c(cnn5-c5cccc(C(=O)NCc6ccccc6)c5)C[C@]4(C)C3[C@@H](O)C[C@@]21C (some centres unmarked) [VSG02]
[3]
  potency for GR, in words: relatively low potency

## CCCNC(=O)[C@@]1(O)CCC2C3CCC4=Cc5c(cnn5-c5cccc(C(=O)NCc6ccccc6)c5)C[C@]4(C)C3[C@@H](O)C[C@@]21C (some centres unmarked) [VSG03]
[3]
  potency for GR, in words: relatively low potency

## CCNC(=O)[C@@]1(OC(=O)c2ccco2)CCC2C3CCC4=Cc5c(cnn5-c5cccc(C(=O)NCc6ccccc6)c5)C[C@]4(C)C3[C@@H](O)C[C@@]21C (some centres unmarked) [VSG10]
[3]
  effect of the 17α furoate on potency and efficacy, in words: greatly increased both GR potency and efficacy

## CCCNC(=O)[C@@]1(OC(=O)c2ccco2)CCC2C3CCC4=Cc5c(cnn5-c5cccc(C(=O)NCc6ccccc6)c5)C[C@]4(C)C3[C@@H](O)C[C@@]21C (some centres unmarked) [VSG11]
[3]
  effect of the 17α furoate on potency and efficacy, in words: greatly increased both GR potency and efficacy

## C[C@]12Cc3cnn(-c4cccc(C(=O)NCc5ccccc5)c4)c3C=C1CCC1C2[C@@H](O)C[C@@]2(C)C1CC[C@]2(OC(=O)c1ccco1)C(=O)NCc1ccccc1 (some centres unmarked) [VSG14]
[3]
  effect of the 17α furoate on potency and efficacy, in words: greatly increased both GR potency and efficacy

## CCC(=O)O[C@]1(C(=O)NCc2ccccc2)CCC2C3CCC4=Cc5c(cnn5-c5cccc(C(=O)NCc6ccccc6)c5)C[C@]4(C)C3[C@@H](O)C[C@@]21C (some centres unmarked) [VSG15]
[3]
  potency for GR, in words: relatively low potency

## CON(C)C(=O)[C@@]1(OC(=O)c2ccco2)CCC2C3CCC4=Cc5c(cnn5-c5ccccc5)C[C@]4(C)C3[C@@H](O)C[C@@]21C (some centres unmarked) [VSG22]
[3]
  potency compared with reference glucocorticoids, in words: slightly weaker than MF
  effect of the 17α furoate on potency and efficacy, in words: greatly increased both potency and efficacy
[3]; VSG22 vs VSG24
  EC50 change on replacement of the 17α hydroxyl group by a furoate ester: greater than 1000 fold

## CON(C)C(=O)[C@@]1(OC(=O)c2ccco2)CCC2C3CCC4=Cc5c(cnn5-c5ccccc5)C[C@]4(C)C3[C@@H](O)C[C@@]21C (some centres unmarked) [VSG24F]
[3]
  potency compared with reference glucocorticoids, in words: better than those of DEX and DAC

## CON(C)C(=O)[C@@]1(O)CCC2C3CCC4=Cc5c(cnn5-c5ccccc5)C[C@]4(C)C3[C@@H](O)C[C@@]21C (some centres unmarked) [VSG24]
[3]
  activity in the MMTV reporter assay, in words: almost no activity

## C[C@]12CCC(=O)C=C1CC[C@@H]1[C@@H]2[C@@H](O)C[C@@]2(C)[C@H]1CC[C@]2(O)C(=O)CO [cortisol, Cortisol]
[4]
  potency compared with DEX, transrepression, in words: much weaker than DEX
[5]
  full dose-response curve of Q642N, in words: inactive
[3]; at its saturation concentration (10 μM)
  efficacy as % of the efficacy of DEX, transactivation: 80%

## C[C@]12C=CC(=O)C=C1CC[C@@H]1[C@@H]2[C@@H](O)C[C@@]2(C)[C@H]1CC[C@]2(O)C(=O)CO [prednisolone, reference compound]
[3]; transactivation, relative to cortisol
  leftward shift of the cortisol dose-response curve: about 5 fold
